Test results reported in US20100146645A1, “TRANSGENIC ANIMAL MODEL FOR MODELLING PA[…], A METHOD FOR IDENTIFYING COMPOUNDS FOR TREATMENT OF DISEASES OR DISORDERS CAUSED BY PA[…] AND A METHOD FOR USING WFS1 PROTEIN AS A TARGET FOR I[…] COMPOUNDS AGAINST PA[…]” (priority 2006, published 2010).

What was measured:
[1] = test system: Wfs1 −/− mice; test: Elevated plus-maze, effect of diazepam on anxiety behaviour and vocalization; assay type: in vivo, mouse
[2] = test system: Wfs1 −/− mice; test: Light-dark cage test, vocalization; assay type: in vivo, mouse; details: Wfs1 −/− mice (30% vocalized), anxiolytic dose of diazepam injected
Description: The cage was divided into two: a ⅔ part was lighted and a ⅓ part with darkened cover. The light part was divided into three equal parts, so that the most aversive part was the third part, which is located most distantly from the dark part. Anxious animals preferred to remain mostly in the dark part and avoided the aversive light partition. The experiment was performed one week after the elevated plus-maze experiment and no preliminary isolation of the animals was applied. Lighting level in the light part of the cage was 270 lux.
Namely, the female Wfs1 −/− mice performed 1.5-2 times less entrances to the various parts of the light partition, if compared to the wild type mice (FIG. 7) and the duration of their stay in the light part was twice shorter (FIG. 8). […] In the test cage 30% of the Wfs1 −/− mice vocalized.

CN1C(=O)CN=C(c2ccccc2)c2cc(Cl)ccc21 [diazepam]
Suppressed exploratory activity and risk behaviour ([1]; Wfs1-deficient mice, diazepam 1 mg/kg): significantly reduced
Stress-induced vocalization ([1]; Wfs1 −/− mice, diazepam 0.5 mg/kg): not effective
Stress-induced vocalization ([1]; Wfs1 −/− mice, diazepam 1 mg/kg): removed
Vocalization (share of vocalizing mice) ([1]; Wfs1 −/− mice, diazepam group, physiological saline group 24%): 0%
Time spent on the open arms of the cage ([1]; female Wfs1 −/− homozygotes, diazepam 1 mg/kg vs physiological saline, FIG. 4): increased
Number of downwards examinations (head dippings) from the open arms ([1]; female Wfs1 −/− homozygotes, diazepam 1 mg/kg vs physiological saline, FIG. 5): increased
Risk avoidance behaviour ([1]; female Wfs1 −/− homozygotes, diazepam 1 mg/kg vs physiological saline, FIG. 6): significantly decreased
Vocalization in the test cage [2]: completely removed
